According to patent US20250134902A1, “DRUG REPURPOSING FOR DELAYED TREATMENT OF ISCHEMIC STROKE” (UNIVESRITY OF NORTH TEXAS HEALTH SCIENCE CENTER, priority 2022, published 2025):
Read-outs that look alike come from different tables or passages of the source.

Tests used:
neuronal MN9D cell line = experiment: BDNF secretion via in situ ELISA; assay type: cell-based; conditions: MN9D cells; for Efficacy of BDNF secretion: 24 hrs, normalized to maximal response of 10 μM 4-PPBP, mean ± SEM, asterisk = significantly different from 4-PPBP
Source text: Measuring BDNF secretion via in situ ELISA. […] The in situ ELISA improves on traditional ELISA by seeding BDNF-secreting cells directly into the wells pre-coated with an anti-BDNF primary antibody. BDNF secreted by these cells is immediately captured by the primary antibody, drastically increasing the sensitivity and reproducibility of the ELISA assay. Intact cells are removed […] the addition of the secondary and tertiary antibodies. The amount of BDNF secreted from the neuronal MN9D cells was quantified using an in situ ELISA assay developed using the BDNF EMAX® ImmunoAssay kit (Cat. No. G7611, Promega, Madison, WI). Briefly, a NUNC™ MAXISORP™ flat-bottom, polystyrene, 96-well immunoplate was coated for 48 hrs at 4° C. with an anti-BDNF monoclonal antibody diluted 1:1000 v/v in carbonate buffer containing 25 mM sodium bicarbonate and 25 mM sodium carbonate, pH 9.7. Unbound antibody was removed by washing 5 times with 150 μL of TBST buffer (20 mM Tris-HCl, pH7.6, 150 mM NaCl, and 0.05% (v/v) TWEEN® 20), before blocking non-specific sites first with blocking buffer for 1 hr and then with culture medium for 2 hrs. Cells were seeded at 35,000 cells per well and incubated overnight at 37° C. in a humidified CO2 incubator. The following day, the wells were replaced with fresh culture media containing either experimental compounds or vehicle controls, then incubated for an additional 24 hours. In addition, on the same plate, but in separate wells, BDNF standards were added ranging in concentration from 15.6-250 pg/mL. After 24 hrs incubation with experimental compounds, the media was aspirated and 100 μL of Dulbecco's phosphate saline (D-PBS without Ca^2+ and Mg^2+ supplemented with 5 mM EDTA) was added to each well and incubated for 15 min at 37° C. to promote cell lifting. Cells were then detached from the bottom of wells by triturating in the center and around the edges of the well. After removing all cell debris, the wells were rinsed five times with 150 μL of TBST. The plate was then incubated with 1:500 v/v diluted polyclonal anti-human BDNF antibody for 2 hrs at room temperature. This antibody was removed, and wells were washed five times with 150 μL of TBST, before incubating with 1:200 v/v diluted polyclonal Anti-IgY HRP conjugate for 2 hrs at room temperature. Wells were then washed five times with 150 μL of TBST and the remaining specifically bound polyclonal antibody was detected with the 50 μL colorimetric HRP substrate 3,3′,5,5′-Tetramethylbenzidine (TMB). The reaction was terminated with 50 μL of 1 M HCl and the color intensity was quantified by measuring the absorbance at 450 nm using a FLEXSTATION® 3 plate reader (Molecular Devices, Sunnyvale, CA). […] A one-way ANOVA with a Bonferroni multiple comparisons post-hoc analysis (P<0.05) was applied to determine significant differences between groups.
Further, BDNF secreted from MN9D cells can be detected 24 hours after treatment with S1R ligand, whereas BDNF secreted from the B104 cell line takes 7 days to be detected (Fujimoto, et al., 2012).
An in situ ELISA approach was utilized because of its improved sensitivity related to its rapid capture of secreted BDNF (Balkowiec & Katz, 2000; Dalwadi, et al., 2017). […] Values are averages of 2-10 experiments±SEM, and each experiment was performed in triplicate. Statistical significance at P<0.05 was determined by ANOVA followed by a Bonferroni's post-hoc test and are marked with an asterisk.

rat blood = experiment: Clotting (streak) assay of thrombotic potential
Procedure: Clotting assays. Thrombotic potential was assessed with trunk blood from donor rats using a protocol modified from Kim et al. (Kim et al., 2010). Oxeladin was compared to whole blood with or without the anticoagulant benzamidine and several other S1R ligands at doses 10× greater than those that stimulate the release of BDNF (Dalwadi et al., 2022; Dalwadi et al., 2017). Blood was rapidly collected into chilled, pre-weighed plastic tubes containing a known quality of EDTA disodium salt (>3.7 mM) electrostatically-coated onto the tube wall. Blood was prevented from coagulating by gently swirling the chilled EDTA-coated tube. The tube was weighed and the volume of collected blood calculated in order to compute the exact concentration of EDTA in the uncoagulated blood sample allowing us to determine which concentration of calcium to add back into the blood to initiate coagulation. Uncoagulated blood samples were stored chilled. The following was be dispensed into NUNC™ MICROWELL™ MiniTrays: 8 μL/well of normal saline containing a concentration of calcium 1.2 mM higher than that of the concentration of EDTA in the blood sample, 1 μL/well of oxeladin, 3 mM benzamidine anticoagulant positive control, or untreated or vehicle negative controls, and 1 μL/well of (EDTA-treated) uncoagulated rat blood. Plates were tilted at a 45° angle at 5, 15, 30, 45 and 60 minutes to observe coagulation (i.e., no streaking) and compared to the controls. Each triplicate well was scored by a treatment-blinded observer as Yes (coagulation, no streaking) or No (no coagulation, streaking). The experiment was repeated with two separate donor rats.
Referring to FIG. 5, the effect on thrombotic activity of test drugs, benzamidine anticoagulant positive control, or untreated or vehicle negative controls on whole blood from donor rats was assessed by tilting treated blood samples at a […] to observe coagulation (i.e., no streaking) between […] (top panel). Blood coagulation was represented by a value between 1 (no streaking, coagulation) and 0 (streaking, less or no coagulation), and values were assigned for each test drug, benzamidine, and untreated and vehicle controls (bottom panel). Quantitative results from these clotting assays, including coagulation half-life, are summarized below in Table 5.

[1] = biological target: T1, human Sigma-1 receptor (S1R) (Homo sapiens, UniProt Q99720); experiment: Radioligand competition binding at Sigma-1 receptor ([3H]-(+)-pentazocine, MCF-7-hS1R)
T1 construct: expressed in transfected cells
T1 sequence (Q99720 whole entry): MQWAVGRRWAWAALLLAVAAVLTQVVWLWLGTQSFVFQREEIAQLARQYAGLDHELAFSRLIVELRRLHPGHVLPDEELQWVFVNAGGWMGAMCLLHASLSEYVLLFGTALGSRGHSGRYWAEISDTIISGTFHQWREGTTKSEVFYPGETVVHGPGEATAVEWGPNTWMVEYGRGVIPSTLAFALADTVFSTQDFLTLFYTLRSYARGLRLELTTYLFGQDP
Procedure: Measuring receptor density with radioligand binding.
Measuring the ligand affinities at SIR and S2R receptors by radioligand binding. […] Binding conditions were the same as described previously for the S1R (Schetz, et al., 2007): binding buffer (Tris 50 mM, pH=8.1 at 37° C.), ice-cold wash buffer (Tris 10 mM, pH=8.1 at 0-2° C.), and incubation time (3 hrs at 37° C.) with shaking. Non-specific binding for the S1R and S2R was determined in the presence of 5 μM BD1063 and […] haloperidol, respectively. Following incubation, receptors were collected via rapid filtration through GF/C filters (Brandel, Gaithersburg, MD) followed by washing three times with 3 mL of ice-cold wash buffer. Dried filters were transferred to vials filled with 3.5 ml of scintillation fluid, and the radioactivity was quantified on a liquid scintillation analyzer (TRICARB® 2800TR) from Perkin Elmer (Saint Louis, MO). Mean values from duplicate or triplicate determinations are reported along with their associated standard error of the mean (SEM). Ki values were calculated from IC50 values using the Cheng-Prusoff equation. The concentration of membrane protein was determined using a PIERCE® BCA Protein Assay kit (Life Technologies, Grand Island, NY) following the manufacturer's protocol.
Referring to FIG. 1, the selectivity of potential S1R ligands over S2R was empirically evaluated. Human MCF-7 cells were used as the source of the S2R because these cells express the endogenous S2R (Vilner, John, et al., 1995; Wu & Bowen, 2008) but lack detectable levels of the S1R, allowing unambiguous detection of S2R activity in untransfected cells (Schetz, et al., 2007). MCF-7 cells stably expressing the cloned human S1R were used as the source of S1R.

[2] = displacement of 0.5 nM [3H]-(+)-pentazocine, MCF-7 cells expressing human S1R, average of 2-3 experiments ± SEM, read-out: S1R affinity (Ki)

SMILES: c1ccc(CCCCN2CCC(c3ccccc3)CC2)cc1 [4-PPBP]
- Efficacy of BDNF secretion (neuronal MN9D cell line; 10 μM): 1
- BDNF secreted, maximal stimulation (neuronal MN9D cell line; 10 μM, averaged ± SEM, n=3-10, baseline 75.4±6.9): 128.6 ± 12.8 pg/mL
- Coagulation Half-Life (λ1/2 ± SD) (rat blood; 100 μM, rat blood): 11 ± 6 min

SMILES: Cc1c(C2CCN(CCc3ccccc3)CC2)noc1-c1ccc(Cl)cc1 [L-741, 742]
- Coagulation Half-Life (λ1/2 ± SD) (rat blood; rat): 11 ± 6 min

SMILES: CC(CN1c2ccccc2Sc2ccccc21)N(C)C (stereo not drawn) [Promethazine]
- Efficacy of BDNF secretion (neuronal MN9D cell line; 10 μM): 1.09 ± 0.34
- selective for S1R over S2R [1]: 5 fold
- Ki ([1]; receptor not given, S1R implied, read-out: affinity): 157 nM
- effect on thrombosis in blood (rat blood): do not alter thrombosis

SMILES: CCN(CC)CCOCCOC(=O)C1(c2ccccc2)CCCC1 [Carbetapentane]
- Efficacy of BDNF secretion (neuronal MN9D cell line; 10 μM): 0.73 ± 0.05
- Ki [1, 2]: 19.8 ± 2.3 nM
- Coagulation Half-Life (λ1/2 ± SD) (rat blood; rat): 23 ± 18 min

SMILES: N=C(N)c1ccccc1 [Benzamidine]
- Coagulation Half-Life (λ1/2 ± SD) (rat blood; 3000 μM, rat blood, positive control): >1,440 minutes
- Coagulation Half-Life (λ1/2 ± SD) (rat blood; 3000 μM, rat blood, positive control, listed as positive control): > 1,440 minutes

SMILES: O=C(OCCN1CCOCC1)C1(c2ccccc2)CCCCC1 [PRE-084]
- stimulation of BDNF secretion (neuronal MN9D cell line; 10 μM): failed to stimulate BDNF secretion

SMILES: OC(CCCN1CCC(O)(c2ccc(Cl)cc2)CC1)c1ccc(F)cc1 (stereo not drawn) [Haloperidol Metabolite II]
- Coagulation Half-Life (λ1/2 ± SD) (rat blood; 100 μM, rat blood): 14 ± 11 min

SMILES: CCC(C/C=C/c1ccccc1)(c1ccccc1)N(C)CC1CC1 (single isomer, unassigned; (+)) [(+)-igmesine]
- Efficacy of BDNF secretion (neuronal MN9D cell line; 10 μM): 0.42 ± 0.03
- Coagulation Half-Life (λ1/2 ± SD) (rat blood; rat): 19 ± 16 min

SMILES: CN1CCN(CCc2ccc(Cl)c(Cl)c2)CC1 [BD1063]
- reversal of S1R agonist-induced BDNF secretion (neuronal MN9D cell line; 15 nM antagonist): reversed

SMILES: Clc1ccc(N2CCN(Cc3c[nH]c4ncccc34)CC2)cc1 [L-745, 870]
- Coagulation Half-Life (λ1/2 ± SD) (rat blood; rat): 11 ± 6 min

SMILES: CCC(C(=O)OCCOCCN(CC)CC)c1ccccc1 (stereo not drawn) [Butamirate]
- stimulation of BDNF secretion (neuronal MN9D cell line; 10 μM): With the exception of butamirate, all compounds were able to stimulate BDNF release
- selective for S1R over S2R [1]: 10 fold
- Ki [1, 2]: 17.2 ± 1.7 nM
- S2R/S1R ratio (Ki S2R/Ki S1R) ([1]; selectivity for S1R over S2R): 10

SMILES: COc1ccc(CCN2CCN(CCCc3ccccc3)CC2)cc1OC [SA4503]
- Coagulation Half-Life (λ1/2 ± SD) (rat blood; rat): 11 ± 6 min
